One assay concerns the target T1, STAT6 (Homo sapiens, UniProt P42226).
T1 construct: stably transfected HaCaT keratinocyte cell line, which expresses NanoLuc luciferase reporter gene under the transcriptional control of the STAT6 responsive promoter; endogenous in cells; host or cells: HaCaT keratinocyte reporter cell line (stably transfected with a NanoLuc reporter)
T1 sequence (P42226 1-847): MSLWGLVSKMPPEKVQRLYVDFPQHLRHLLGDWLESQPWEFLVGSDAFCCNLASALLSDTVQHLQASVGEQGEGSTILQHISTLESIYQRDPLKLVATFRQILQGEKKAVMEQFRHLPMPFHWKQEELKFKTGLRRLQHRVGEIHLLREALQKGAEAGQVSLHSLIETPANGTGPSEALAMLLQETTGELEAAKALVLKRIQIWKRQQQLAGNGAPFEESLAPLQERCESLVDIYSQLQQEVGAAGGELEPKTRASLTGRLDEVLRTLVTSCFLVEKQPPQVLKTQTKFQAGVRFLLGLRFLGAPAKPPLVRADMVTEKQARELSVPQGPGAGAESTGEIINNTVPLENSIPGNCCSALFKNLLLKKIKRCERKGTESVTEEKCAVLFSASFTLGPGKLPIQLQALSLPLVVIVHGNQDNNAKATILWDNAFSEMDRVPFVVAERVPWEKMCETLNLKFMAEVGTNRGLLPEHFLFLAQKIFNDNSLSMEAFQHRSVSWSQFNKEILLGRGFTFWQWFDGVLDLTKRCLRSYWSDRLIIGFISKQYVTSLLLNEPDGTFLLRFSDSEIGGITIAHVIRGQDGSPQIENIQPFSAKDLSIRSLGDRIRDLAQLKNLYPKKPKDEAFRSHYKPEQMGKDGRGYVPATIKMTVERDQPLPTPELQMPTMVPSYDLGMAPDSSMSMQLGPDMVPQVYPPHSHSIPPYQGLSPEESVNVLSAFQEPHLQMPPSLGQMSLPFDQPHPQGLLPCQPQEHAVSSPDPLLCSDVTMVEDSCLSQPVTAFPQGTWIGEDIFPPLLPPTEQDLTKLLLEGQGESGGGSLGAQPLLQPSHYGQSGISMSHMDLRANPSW
Nature of the assay: STAT6 Reporter Luciferase Assay (IL-13 stimulated HaCaT keratinocyte NanoLuc reporter cells). The format is cell-based. The note with it: IL-13 stimulated HaCaT STAT6 NanoLuc reporter cells; read-out: Reporter EC50. The method, boiled down:
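Luminescence from a NanoLuc reporter driven by the STAT6-responsive IL-13Ra2 promoter in HaCaT keratinocytes serves as the read-out. Compounds are given 2 h before a 4 h stimulation with 0.12 nM IL-13.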

The test system of assay [1] is CCL17 secretion in peripheral human whole blood. Nature of the assay: Human Whole Blood (HWB) CCL17 TR-FRET Assay (IL-13 stimulated CCL17 secretion). The format is cell-based. Particulars: Homo sapiens, 48 h, human whole blood, IL-13 stimulated. Summed up:
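TR-FRET sandwich immunoassay (665/615 nm ratio) read CCL17 in serum from heparinized whole blood after 16 h RT detection. Blood was exposed to compound for 2 h at 37 °C, then to 10 ng/mL IL-13 (final) for 48 h. IC50 from 11-point, 3-fold titrations in duplicate.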

On to `CC(C)n1nc(C(=O)NCc2ccc(C(N)=O)cc2)c2c1[C@@H](C)CN(c1ccc(C(=O)N(C)C)cn1)C2` [Example 342, (S)-N-(4-carbamoylbenzyl)-5-(5-(dimethylcarbamoyl)pyridin-2-yl)-1-isopropyl-7-methyl-4,5,6,7-tetrahydro-1H-pyrazolo[4,3-c]pyridine-3-carboxamide], for which the EC50 on STAT6 worked out at 3 nM. The same compound came in with an IC50 in assay [1] of 15 nM.

Regarding `CC(C)n1nc(C(=O)NCc2ccc(-c3ncc[nH]3)cc2)c2c1[C@@H](C)CN(c1ccc(C(=O)N(C)C)cn1)C2` [Example 343, (S)-N-(4-(1H-imidazol-2-yl)benzyl)-5-(5-(dimethylcarbamoyl)pyridin-2-yl)-1-isopropyl-7-methyl-4,5,6,7-tetrahydro-1H-pyrazolo[4,3-c]pyridine-3-carboxamide], the EC50 at STAT6 came to 1 nM. The compound further came in with an IC50 in assay [1] of 9 nM.

In the case of `CC(C)n1nc(C(=O)NCc2ccc(NC(=O)N(C)C)cc2)c2c1[C@@H](C)CN(c1ncc(C(=O)N3Cc4cccnc4C3)cn1)C2` [Example 346, (S)-5-(5-(6,7-dihydro-5H-pyrrolo[3,4-b]pyridine-6-carbonyl)pyrimidin-2-yl)-N-(4-(3,3-dimethylureido)benzyl)-1-isopropyl-7-methyl-4,5,6,7-tetrahydro-1H-pyrazolo[4,3-c]pyridine-3-carboxamide], on STAT6, the EC50 came to 2 nM. Moreover, the IC50 in assay [1] came out at 13 nM.

Take `CC(C)n1nc(C(=O)NCc2ccc(NC(=O)N(C)C)nc2)c2c1[C@@H](C)CN(c1ccc(C(=O)N(C)C)cn1)C2` [Example 349, (S)-5-(5-(dimethylcarbamoyl)pyridin-2-yl)-N-((6-(3,3-dimethylureido)pyridin-3-yl)methyl)-1-isopropyl-7-methyl-4,5,6,7-tetrahydro-1H-pyrazolo[4,3-c]pyridine-3-carboxamide]: the EC50 at STAT6 turned out to be 2 nM. Also, in assay [1], the midpoint of inhibition, the IC50, lay at 11 nM.

Consider `CC(C)n1nc(C(=O)NCc2ccc(NC(=O)N(C)C)cn2)c2c1[C@@H](C)CN(c1ccc(C(=O)N(C)C)cn1)C2` [Example 350, (S)-5-(5-(dimethylcarbamoyl)pyridin-2-yl)-N-((5-(3,3-dimethylureido)pyridin-2-yl)methyl)-1-isopropyl-7-methyl-4,5,6,7-tetrahydro-1H-pyrazolo[4,3-c]pyridine-3-carboxamide], for which, on STAT6, the EC50 stood at 2 nM. Moreover, half-maximal inhibition in assay [1] (IC50) required 6 nM.

On to `COc1nccc2c1CN(C(=O)c1ccc(N3CCc4c(c(C(=O)NCc5ccc(NC(=O)N(C)C)cc5)nn4C(C)C)C3)nc1)CC2` [Example 375, N-(4-(3,3-dimethylureido)benzyl)-1-isopropyl-5-(5-(8-methoxy-1,2,3,4-tetrahydro-2,7-naphthyridine-2-carbonyl)pyridin-2-yl)-4,5,6,7-tetrahydro-1H-pyrazolo[4,3-c]pyridine-3-carboxamide], for which, on STAT6, the EC50 came out at 15 nM. Also, in assay [1], the IC50 was determined as 1960 nM.

Consider `COc1ccc2c(n1)CCN(C(=O)c1ccc(N3CCc4c(c(C(=O)NCc5ccc(NC(=O)N(C)C)cc5)nn4C(C)C)C3)nc1)C2` [Example 384, N-(4-(3,3-dimethylureido)benzyl)-1-isopropyl-5-(5-(2-methoxy-5,6,7,8-tetrahydro-1,6-naphthyridine-6-carbonyl)pyridin-2-yl)-4,5,6,7-tetrahydro-1H-pyrazolo[4,3-c]pyridine-3-carboxamide], for which, on STAT6, the EC50 worked out at 15 nM. This compound also came in with an IC50 in assay [1] of 1070 nM.

Take `CCn1nc(C(=O)NCc2ccc(C(=O)NC)cc2)c2c1[C@@H](C)CN(c1ccc(N3CCCC3=O)cn1)C2` [Example 388, (S)-1-ethyl-7-methyl-N-(4-(methylcarbamoyl)benzyl)-5-(5-(2-oxopyrrolidin-1-yl)pyridin-2-yl)-4,5,6,7-tetrahydro-1H-pyrazolo[4,3-c]pyridine-3-carboxamide]: the concentration giving a half-maximal response (EC50) at STAT6 amounted to 8 nM. Besides, 29 nM corresponded to half-maximal inhibition in assay [1] (IC50).

In the case of `CCn1nc(C(=O)NCc2ccc(C(N)=O)cc2)c2c1[C@@H](C)CN(c1ccc(N3CCCC3=O)cn1)C2` [Example 389, (S)-N-(4-carbamoylbenzyl)-1-ethyl-7-methyl-5-(5-(2-oxopyrrolidin-1-yl)pyridin-2-yl)-4,5,6,7-tetrahydro-1H-pyrazolo[4,3-c]pyridine-3-carboxamide], on STAT6, the EC50 was 6 nM. Besides, it took 17 nM to reach half-maximal inhibition in assay [1] (IC50).

`CC(C)n1nc(C(=O)NCc2ccc(C(N)=O)cc2)c2c1[C@@H](C)CN(c1ccc(C(=O)N3Cc4cccnc4C3)cn1)C2` [Example 395, (S)—N-(4-Carbamoylbenzyl)-5-(5-(6,7-dihydro-5H-pyrrolo[3,4-b]pyridine-6-carbonyl)pyridin-2-yl)-1-isopropyl-7-methyl-4,5,6,7-tetrahydro-1H-pyrazolo[4,3-c]pyridine-3-carboxamide]: the EC50 on STAT6 came to 1 nM. Besides, half-maximal inhibition in assay [1] (IC50) required 6 nM.

For the compound `CNC(=O)c1ccc(CNC(=O)c2nn(C(C)C)c3c2CN(c2ccc(C(=O)N4Cc5cccnc5C4)cn2)C[C@@H]3C)cc1` [Example 396, (S)-5-(5-(6,7-dihydro-5H-pyrrolo[3,4-b]pyridine-6-carbonyl)pyridin-2-yl)-1-isopropyl-7-methyl-N-(4-(methylcarbamoyl)benzyl)-4,5,6,7-tetrahydro-1H-pyrazolo[4,3-c]pyridine-3-carboxamide], the EC50 at STAT6 stood at 1 nM. The compound also returned a half-maximal inhibitory concentration (IC50) in assay [1] of 15 nM.

Turning to `CCn1nc(C(=O)NCc2ccc(-c3nc(C)c[nH]3)cc2)c2c1[C@@H](C)CN(c1ncc(C(=O)N(C)C)cn1)C2` [Example 397, (S)-5-(5-(dimethylcarbamoyl)pyrimidin-2-yl)-1-ethyl-7-methyl-N-(4-(4-methyl-1H-imidazol-2-yl)benzyl)-4,5,6,7-tetrahydro-1H-pyrazolo[4,3-c]pyridine-3-carboxamide], the EC50 on STAT6 was 1 nM. The compound further had an IC50 in assay [1] of 9 nM.

Take `CCn1nc(C(=O)NCc2ccc(NC(=O)N3CCN(C)CC3)cc2)c2c1[C@@H](C)CN(c1ccc(C(=O)N(C)C)cc1)C2` [Example 398, (S)-5-(4-(dimethylcarbamoyl)phenyl)-1-ethyl-7-methyl-N-(4-(4-methylpiperazine-1-carboxamido)benzyl)-4,5,6,7-tetrahydro-1H-pyrazolo[4,3-c]pyridine-3-carboxamide]: the EC50 on STAT6 is 0.3 nM. Also, it took 7 nM to reach half-maximal inhibition in assay [1] (IC50).

As for `CN(C)C(=O)Nc1ccc(CNC(=O)c2nn(C)c3c2CN(c2ccc(C(=O)N(C)C)cn2)C2(CC2)C3)cc1` [Example 400, 5′-(5-(dimethylcarbamoyl)pyridin-2-yl)-N-(4-(3,3-dimethylureido)benzyl)-1′-methyl-1′,4′,5′,7′-tetrahydrospiro[cyclopropane-1,6′-pyrazolo[4,3-c]pyridine]-3′-carboxamide], at STAT6, the EC50 is 1040 nM. Moreover, the IC50 in assay [1] stood at 2570 nM.

With `COc1ccnc2c1CCN(C(=O)c1ccc(N3CCc4c(c(C(=O)NCc5ccc(NC(=O)N(C)C)cc5)nn4C(C)C)C3)nc1)C2` [Example 407, N-(4-(3,3-dimethylureido)benzyl)-1-isopropyl-5-(5-(4-methoxy-5,6,7,8-tetrahydro-1,7-naphthyridine-7-carbonyl)pyridin-2-yl)-4,5,6,7-tetrahydro-1H-pyrazolo[4,3-c]pyridine-3-carboxamide], the EC50 at STAT6 was 10 nM. This compound had an IC50 in assay [1] of 100 nM.

In the case of `CC(C)n1nc(C(=O)NCc2ccc(NC(=O)N(C)C)cc2)c2c1CCN(c1ccc(C(=O)N3CCc4c(ncn4C4CC4)C3)cn1)C2` [Example 420, 5-(5-(1-cyclopropyl-4,5,6,7-tetrahydro-1H-imidazo[4,5-c]pyridine-5-carbonyl)pyridin-2-yl)-N-(4-(3,3-dimethylureido)benzyl)-1-isopropyl-4,5,6,7-tetrahydro-1H-pyrazolo[4,3-c]pyridine-3-carboxamide], the EC50 at STAT6 was determined as 17 nM. This compound also showed an IC50 in assay [1] of 125 nM.

With `CC(C)n1nc(C(=O)NCc2ccc(NC(=O)N(C)C)cc2)c2c1CCN(c1ccc(CC(N)=O)cn1)C2` [Example 430, 5-(5-(2-amino-2-oxoethyl)pyridin-2-yl)-N-(4-(3,3-dimethylureido)benzyl)-1-isopropyl-4,5,6,7-tetrahydro-1H-pyrazolo[4,3-c]pyridine-3-carboxamide], the EC50 on STAT6 came to 333 nM. Besides, in assay [1], the half-maximal inhibitory concentration (IC50) amounted to 1410 nM.

For the origin of these results see patent publication US20250320213A1, “Nitrogen-Containing Heterocyclic Compounds” (Pfizer Inc., priority 2024, published 2025).
